Laboratory results published in patent publication US20100197712A1, “USE OF DOPAMINE STABILIZERS” (priority 2007, published 2010).

Columns and labels:
[1] = clinical dosages of at least 25 mg per day; cited from earlier work
habituated rats = assay: Motor activity of habituated rats in activity boxes; assay type: in vivo, Sprague-Dawley rats; details: s.c.
Method: (§1) Prior to testing, the rats were housed for approximately 1 week with free access to food and water, in groups of four or five in Macrolon type III cages in the animal facility of the Sahlgrenska Academy at Göteborg University. The experiments were approved by the animal ethics committee in Göteborg.
(§2) OSU6162, ACR16, apomorphine and (−)-3-PPP were dissolved in 0.9% saline. A few grains of ascorbic acid were added to apomorphine solutions to prevent oxidation of the drug. Haloperidol and amisulpride were dissolved in a minimum amount of acetic acid and diluted with 5.5% glucose. The solutions were adjusted to pH 5-7 with sodium bicarbonate. Aripiprazole was dissolved in a minimum amount of heated acetic acid, diluted in warm 5.5% glucose and adjusted to pH 4-5. All drugs were administered intraperitoneally (i.p.) or subcutaneously (s.c.) in volumes of 5 ml/kg. Control treatments consisted of the appropriate vehicle administered in accordance with the drug treatment at issue.
Rats were housed in a normal daylight cycle and testing was performed during daytime. Animals were introduced into sound attenuated, illuminated activity boxes (1/w/h: 40×40×20 cm) and were allowed to habituate in the new environment for 65 minutes. During the following 5 minutes test drugs were injected s.c., after which the rats were returned to the boxes for another 60 minutes. Five by five rows of photocell beams at floor level allowed a computer based-system to register horizontal activity. Motor activity is presented as accumulated number of unrepeated beam breaks, i.e. several consecutive breakings of one beam is counted as one beam break. The software was set to register behaviour from the rat's first introduction into the arena until it was finally removed from the box, i.e. for 130 minutes. Activity is presented separately for t=0-30 min and t=30-60 min after injection.
(§3) In several cases data from two or more experiments have been pooled. […] Confirmed outlying values (N=0-3 per experiment) were excluded from statistical analyses and graphical presentations. Data from the video tracking setting was analyzed with univariate general linear model (GLM). Following GLM analysis, comparisons versus the appropriate control groups were performed with Dunnet's post hoc test. […] Data obtained from activity boxes was analyzed with Kruskal-Wallis one-way analysis of variance by ranks. […] All statistical tests were two sided and p<0.05 was considered statistically significant.

human D2l receptors = biological target: T1, human D2l receptors (Homo sapiens, UniProt P14416); assay: Incorporation of GTPgammaS^35 in CHO-hD2l membranes; assay type: biochemical
T1 construct: expressed in transfected cells; host or cells: CHO (CHO-hD2l cells), membrane preparation
T1 sequence (P14416 whole entry): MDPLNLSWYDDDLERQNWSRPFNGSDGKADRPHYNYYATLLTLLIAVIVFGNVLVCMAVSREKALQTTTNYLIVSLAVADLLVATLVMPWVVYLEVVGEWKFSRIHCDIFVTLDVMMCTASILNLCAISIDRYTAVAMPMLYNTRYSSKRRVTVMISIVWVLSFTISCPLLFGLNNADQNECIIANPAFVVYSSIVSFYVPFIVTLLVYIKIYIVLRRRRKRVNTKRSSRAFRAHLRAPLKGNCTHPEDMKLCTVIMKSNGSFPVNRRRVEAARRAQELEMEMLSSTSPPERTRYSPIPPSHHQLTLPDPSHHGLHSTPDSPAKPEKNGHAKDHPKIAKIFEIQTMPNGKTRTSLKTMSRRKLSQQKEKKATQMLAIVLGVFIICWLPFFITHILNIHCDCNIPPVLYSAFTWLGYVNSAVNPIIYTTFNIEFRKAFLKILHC
Method: Membranes were stored at −80° C. at a concentration of 1 mg protein/ml buffer.
Dopamine-stimulated GTPgammaS^35 incorporation was determined using the following procedure: in a buffer containing 20 mM HEPES, 5 mM Mg Cl2, 100 mM NaCl, at pH 7.5, membranes ([…]) were incubated with vehicle, drugs and 3 μM GDP for 30 min at 30° C., total volume was 1.1 ml. […] The reaction was stopped by filtering the samples with a Brandel harvester on Whatmann GF/B filters. Filters were placed in liquid scintillation vials containing 10 ml of BCS scintillation fluid and counted the next day. All samples were run in triplicate.

dopamine D2 receptors = dopamine D2 receptors (Homo sapiens, UniProt P14416); details: in-vitro binding, Sonesson et al. 1994; cited from earlier work
dopamine D2 receptors, sequence (P14416 whole entry): as above

[2] = system: mice pretreated with reserpine and alpha-methylpara-tyrosine; assay: Mouse model of Parkinsonism (reserpine and alpha-methyl-para-tyrosine pretreated mice); assay type: in vivo, NMRI mice
Method: Animals were pretreated with reserpine (10 mg/kg i.p.) and alpha-methylpara-tyrosine (500 mg/kg i.p.) 18 and 4 hours before the experiment, respectively, and were then treated with various i.p. doses of OSU6162, expressed in […], or saline (“ctr”). Immediately following injection the animals were placed in individual cages and video-taped from above for 60 min. Shown are the distances moved, means and S.E.M. N=5-6 per treatment group. Statistics: *P<0.05, **p<0.01, as compared with the controls.
In these experiments we used male NMRI mice weighting 25-30 g at the time of testing. The mice were pretreated with reserpine, 10 mg/kg i.p., 18 hours, and alpha-methyl-para-tyrosine HCl, 500 mg/kg i.p. 2 hours, respectively, before the experiment.
The actual experiment was started by injecting either OSU6162 in doses of 5, 25 or 125 μmol/kg i.p.or placebo (a physiological saline solution). Each dosage group consisted of 5-6 mice. Immediately after injection the mice were placed in individual cages and video taped from above for 60 min. Various aspects of motility were analysed from the video tapes.
Statistical calculations were performed with the non parametric Mann-Whitney U-test, and asterisks in the graph indicate significant differences compared to control group (*p<0.05; **p<0.01).

[3] = system: apomorphine induced hypomotility in rats; assay: Apomorphine induced hypomotility in rats (video tracking); assay type: in vivo, Sprague-Dawley rats; details: apomorphine 0.16 μmol/kg s.c.
Method: FIG. 7. […] Test drugs were administered 30 minutes prior to registration. Motor activity was measured for 30 minutes as velocity in the video tracking setting. Statistical comparisons were made versus the apomorphine group with univariate general linear model, followed by Dunnet's post hoc test. *p<0.05; *p<0.01; ***p<0.001. FIG. 8.
(§4) The rats were housed in reverse daylight cycle and all handling of the animals was performed in dim light. Apomorphine was administered s.c. 5 minutes prior to testing, while all other drugs were injected i.p. or s.c. 30 minutes before testing. Single rats were introduced into rectangular arenas (l/w/h: 150×100×40 cm) illuminated indirectly by one infrared lamp (Neocom, South Korea). The rats' movements were recorded to digital (MPEG2) video files using an IR sensitive video camera (Panasonic WV-CPR480, lens: Panasonic LA-408C3) connected to a PC equipped with a MPEG-encoder (MVR1000^SX, Canopus Co.). […] Behavioural variables were extracted from the tracks in MatLab (The MathWorks, Inc., USA) with functions developed in this laboratory. Mean velocity was used to measure motor activity. Prior to calculation of velocity the tracks were subjected to a running mean filter, i.e. each sample was replaced by the mean of fifteen consecutive samples.
as §3

active rats = assay: Video tracking: motor activity (velocity) of active rats; assay type: in vivo, Sprague-Dawley rats; details: i.p., 30 min prior to 30 min tracking
Method: as §1, §2, §4, §3

[4] = system: amphetamine-induced hyperactivity in rats; details: Natesan et al., 2006; cited from earlier work
rats = assay: Preliminary experiment: rats in large illuminated arenas during daytime; assay type: in vivo
Excerpt: As to the issues of illumination and daylight cycle, behavioural inhibition has been observed in ultraviolet (Rung et al., 2005b) or infrared light (current study) during the dark hours of the rats' diurnal rhythm. Based on how the light is perceived by humans, we presume that the ultraviolet and infrared light used in these studies is perceived by the rats as dim light and darkness respectively.

CCCN1CCC[C@@H](c2cccc(S(C)(=O)=O)c2)C1 [(−)-OSU6162, S-(−)-3-[3-methylsulfonylphenyl]-1-propylpiperidine]
cardiac adverse effects [1]: QTc values higher than normal, cardiac arrhythmia, or heart rhythm abnormalities, such as torsades de pointes
dose at which a significant effect on motor activity shows up (habituated rats; later experiment with lower doses 6.25 and 12.5 μmol/kg): 12.5 µmol/kg
motor activity (accumulated unrepeated beam breaks) (habituated rats; t=0-30 min after injection): marked locomotor activation
motor activity (accumulated unrepeated beam breaks) (habituated rats; t=30-60 min after injection): the three highest doses significantly stimulated locomotion
increase of the incorporation of GTPgammaS^35 (human D2l receptors; absence of dopamine, 100 to 10,000 nM (−)OSU6162): 8 to 11%
effect on GTPgammaS^35 incorporation (human D2l receptors; dopamine 10 to 100 nM, (−)-OSU6162 10 to 100 nM): caused an increased incorporation of GTPgammaS^35
effect on GTPgammaS^35 incorporation (human D2l receptors; dopamine 10 to 100 nM, (−)-OSU6162 1,000 to 10,000 nM): this increase was no longer seen
effect on GTPgammaS^35 incorporation (human D2l receptors; dopamine 1,000 and 10,000 nM, varied (−)-OSU6162 levels): similar, though flatter activity curves
Ki (dopamine D2 receptors): in the micromolar region
motility (distance moved, 60 min) ([2]; OSU6162 5 μmol/kg i.p.): showed only minimal signs of motility
motility (distance moved, 60 min) ([2]; OSU6162 two higher doses (25, 125 μmol/kg i.p.)): significant, dose dependent increase in motility
effect on apomorphine-induced hypomotility ([3]; OSU6162 120 μmol/kg i.p.): seemed to cause a marked drop in motor activity
effect on apomorphine-induced hypomotility ([3]; test drug i.p. 30 min prior, dose range per drug): modest but apparently dose dependent reversal of apomorphineinduced hypomotility up to a dose of 60 μmol/kg
motor activity (velocity) (active rats): dose-dependent and statistically significant reduction of motor activity
effect on amphetamine-induced hyperactivity [4]: reverse amphetamine-induced hyperactivity
behavioural response (rats; daytime, large illuminated arenas, not habituated): behavioural inhibition similar to that observed in darkness
behavioural response (rats; rats habituated to large illuminated arenas): did not respond with any change in activity
